Measured values as given in patent publication US12371416B2, “Compounds for inhibition of fibroblast activation protein” (USTAV ORGANICKE CHEMIE A BIOCHEMIE AV CR, V. V. I., priority 2020, dated 2025).
Values belong to the compound of their own block, whether it stands above or below them.

How the values were obtained:
[1] = Stability in human plasma; type: in vitro ADME; conditions: 37° C., up to 120 minutes
Procedure: (§1) An aliquot of plasma was extracted with 120 μl of methanol containing caffeine as an internal standard. The solution was vortexed (5 min) and centrifuged (20500 g; 10 min), the supernatant was transferred to a vial, and 1 μl of the mixture was used for LC-MS analysis. […] Results are presented as the percentage of test substance versus control (aliquot taken at time 0).

[2] = Stability in murine plasma; type: in vitro ADME; conditions: 37° C.; for Stability in murine plasma: up to 120 minutes
Procedure: as §1

[3] = Stability in murine microsomes; type: in vitro ADME; conditions: for Stability in murine microsomes: murine microsomes 0.5 mg/ml, 5 μmol·l^−1 test substance, NADPH
Procedure: The incubation of 37.5 μl of the mixture was terminated by the addition of 150 μl of acetonitrile containing caffeine as an internal standard, cooled to 0° C. The mixture was vortexed (5 min) and centrifuged (20500 g; 10 min). The supernatant was transferred to a vial, and 1 μl of the mixture was used for LC-MS analysis. […] Results are presented as the percentage of test substance versus control (aliquot taken at time 0).

CCRF-CEM = assay: Cytotoxicity (XTT) on CCRF-CEM cells; type: cell-based, human; conditions: 72 h
Procedure: (§2) The cytotoxicity of the substances was measured on four tumour cell lines: CCRF-CEM, HepG2, Hela, HL-60. All cell lines were purchased from ATCC (Manassas, VA, USA). Cells were cultured in RPMI-1640 or DMEM medium containing 10% (wt/wt) FBS and 1% (wt/wt) GlutaMax. Cells were distributed at 2,000-10,000 per well of a 384-well plate (Thermo Fisher Scientific, Waltham, USA) and incubated overnight. After 24 hours, test substance solutions (10 or 100 μmol·l^−1) were added to the wells and the cells were incubated with the test substances at 37° C. and 5% (vol./vol.) CO2 for another 72 h. XTT dye (XTT cell proliferation kit II, Roche Diagnostics GmbH, Mannheim, Germany) was added to the wells according to the manufacturer's protocol. After one hour of incubation with the dye, the absorbance at 495 nm was measured and the signal was compared with the control (100% viability=cells without test substance).

HL-60 = assay: Cytotoxicity (XTT) on HL-60 cells; type: cell-based, human; conditions: 72 h
Procedure: as §2

Hela = assay: Cytotoxicity (XTT) on Hela cells; type: cell-based, human; conditions: 72 h
Procedure: as §2

HepG2 = assay: Cytotoxicity (XTT) on HepG2 cells; type: cell-based, human; conditions: 72 h
Procedure: as §2

PREP = molecular target: T1, PREP (Homo sapiens, UniProt P48147); assay: Inhibitory activity against human recombinant PREP (IC50); type: biochemical; conditions: selected substances
T1 construct: purchased R&D Systems 4308-SE-010
T1 sequence (P48147 1-710): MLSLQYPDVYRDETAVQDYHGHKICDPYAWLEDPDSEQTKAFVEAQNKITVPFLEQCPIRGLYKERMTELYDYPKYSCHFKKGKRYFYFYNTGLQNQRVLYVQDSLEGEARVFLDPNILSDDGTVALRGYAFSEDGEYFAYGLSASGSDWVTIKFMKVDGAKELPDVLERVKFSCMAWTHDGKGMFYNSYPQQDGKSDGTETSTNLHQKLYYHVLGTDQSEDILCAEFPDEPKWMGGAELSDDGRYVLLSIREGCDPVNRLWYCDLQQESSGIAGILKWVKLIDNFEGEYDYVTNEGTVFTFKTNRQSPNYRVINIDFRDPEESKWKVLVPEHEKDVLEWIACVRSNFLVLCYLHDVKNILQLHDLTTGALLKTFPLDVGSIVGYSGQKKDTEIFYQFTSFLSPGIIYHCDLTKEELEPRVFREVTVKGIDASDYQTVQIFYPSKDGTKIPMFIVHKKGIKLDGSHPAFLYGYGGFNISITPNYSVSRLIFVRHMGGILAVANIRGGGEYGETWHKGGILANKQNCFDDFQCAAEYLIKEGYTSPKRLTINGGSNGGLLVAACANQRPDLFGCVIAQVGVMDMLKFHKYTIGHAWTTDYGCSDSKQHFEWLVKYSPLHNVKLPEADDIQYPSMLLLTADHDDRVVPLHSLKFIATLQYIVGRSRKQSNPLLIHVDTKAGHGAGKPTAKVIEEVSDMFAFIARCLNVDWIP
Procedure: Data were analysed by nonlinear regression with GraphPrism (version 8.3.1). The measurement results are given as values of the mean inhibitory concentration IC50 and its linearized form via the negative decimal logarithm of pIC50.

Stability in human plasma [1]: stable
Stability in murine plasma [2]: stable
Stability in murine microsomes [3]: stable
Structure (SMILES): O=C(NCc1ccccc1)C(=O)[C@@H]1CCCN1C(=O)CNC(=O)c1ccnc2ccccc12 [Compound 3a, (S)—N-(2-(2-(2-(Benzylamino)-2-oxoacetyl)pyrrolidin-1-yl)-2-oxoethyl)quinoline-4-carboxamide]
Cell viability CEM 10 μM (CCRF-CEM): 105 % vs. control
Cell viability CEM 100 μM (CCRF-CEM): 94 % vs. control
Cell viability HL60 10 μM (HL-60): 94 % vs. control
Cell viability HL60 100 μM (HL-60): 106 % vs. control
Cell viability HeLa S3 10 μM (Hela): 119 % vs. control
Cell viability HeLa S3 100 μM (Hela): 96 % vs. control
Cell viability HepG2 10 μM (HepG2): 103 % vs. control
Cell viability HepG2 100 μM (HepG2): 107 % vs. control

Structure (SMILES): COC(=O)CNC(=O)C(=O)[C@@H]1CCCN1C(=O)CNC(=O)c1ccnc2ccccc12 [Compound 3k, Methyl (S)-(2-oxo-2-(1-((quinoline-4-carbonyl)glycyl)pyrrolidin-2-yl)acetyl)glycinate]
Cell viability CEM 10 μM (CCRF-CEM): 110 % vs. control
Cell viability CEM 100 μM (CCRF-CEM): 123 % vs. control
Cell viability HL60 10 μM (HL-60): 112 % vs. control
Cell viability HL60 100 μM (HL-60): 103 % vs. control
Cell viability HeLa S3 10 μM (Hela): 104 % vs. control
Cell viability HeLa S3 100 μM (Hela): 94 % vs. control
Cell viability HepG2 10 μM (HepG2): 109 % vs. control
Cell viability HepG2 100 μM (HepG2): 105 % vs. control

Structure (SMILES): CN(C)C(=O)CNC(=O)C(=O)[C@@H]1CCCN1C(=O)CNC(=O)c1ccnc2ccccc12 [Compound 5a, (S)—N-(2-(2-(2-((2-(Dimethylamino)-2-oxoethyl)amino)-2-oxoacetyl)pyrrolidin-1-yl)-2-oxoethyl)quinoline-4-carboxamide]
Cell viability CEM 10 μM (CCRF-CEM): 104 % vs. control
Cell viability CEM 100 μM (CCRF-CEM): 100 % vs. control
Cell viability HL60 10 μM (HL-60): 105 % vs. control
Cell viability HL60 100 μM (HL-60): 76 % vs. control
Cell viability HeLa S3 10 μM (Hela): 92 % vs. control
Cell viability HeLa S3 100 μM (Hela): 102 % vs. control
Cell viability HepG2 10 μM (HepG2): 91 % vs. control
Cell viability HepG2 100 μM (HepG2): 104 % vs. control

Structure (SMILES): O=C(NCC(=O)N1CCCC1)C(=O)[C@@H]1CCCN1C(=O)CNC(=O)c1ccnc2ccccc12 [Compound 5b]
Cell viability CEM 10 μM (CCRF-CEM): 90 % vs. control
Cell viability CEM 100 μM (CCRF-CEM): 109 % vs. control
Cell viability HL60 10 μM (HL-60): 111 % vs. control
Cell viability HL60 100 μM (HL-60): 86 % vs. control
Cell viability HeLa S3 10 μM (Hela): 93 % vs. control
Cell viability HeLa S3 100 μM (Hela): 101 % vs. control
Cell viability HepG2 10 μM (HepG2): 83 % vs. control
Cell viability HepG2 100 μM (HepG2): 106 % vs. control

Structure (SMILES): CC(C)NC(=O)CNC(=O)C(=O)[C@@H]1CCCN1C(=O)CNC(=O)c1ccnc2ccccc12 [Compound 5c, (S)—N-(2-(2-(2-((2-(Isopropylamino)-2-oxoethyl)amino)-2-oxoacetyl)pyrrolidin-1-yl)-2-oxoethyl)quinoline-4-carboxamide]
Cell viability CEM 10 μM (CCRF-CEM): 113 % vs. control
Cell viability CEM 100 μM (CCRF-CEM): 108 % vs. control
Cell viability HL60 10 μM (HL-60): 86 % vs. control
Cell viability HL60 100 μM (HL-60): 89 % vs. control
Cell viability HeLa S3 10 μM (Hela): 119 % vs. control
Cell viability HeLa S3 100 μM (Hela): 99 % vs. control
Cell viability HepG2 10 μM (HepG2): 96 % vs. control
Cell viability HepG2 100 μM (HepG2): 108 % vs. control

Structure (SMILES): O=C(CNC(=O)C(=O)[C@@H]1CCCN1C(=O)CNC(=O)c1ccnc2ccccc12)NCc1ccccc1 [Compound 5d, (S)—N-(2-(2-(2-((2-(Benzylamino)-2-oxoethyl)amino)-2-oxoacetyl)pyrrolidin-1-yl)-2-oxoethyl)quinoline-4-carboxamide]
Cell viability CEM 10 μM (CCRF-CEM): 89 % vs. control
Cell viability CEM 100 μM (CCRF-CEM): 107 % vs. control
Cell viability HL60 10 μM (HL-60): 112 % vs. control
Cell viability HL60 100 μM (HL-60): 95 % vs. control
Cell viability HeLa S3 10 μM (Hela): 95 % vs. control
Cell viability HeLa S3 100 μM (Hela): 96 % vs. control
Cell viability HepG2 10 μM (HepG2): 82 % vs. control
Cell viability HepG2 100 μM (HepG2): 89 % vs. control

Structure (SMILES): COC(=O)[C@H](CC(C)C)NC(=O)CNC(=O)C(=O)[C@@H]1CCCN1C(=O)CNC(=O)c1ccnc2ccccc12 [Compound 5e, Methyl (2-oxo-2-((S)-1-((quinoline-4-carbonyl)glycyl)pyrrolidin-2-yl)acetyl)glycyl-L-leucinate]
Cell viability CEM 10 μM (CCRF-CEM): 96 % vs. control
Cell viability CEM 100 μM (CCRF-CEM): 104 % vs. control
Cell viability HL60 10 μM (HL-60): 112 % vs. control
Cell viability HL60 100 μM (HL-60): 83 % vs. control
Cell viability HeLa S3 10 μM (Hela): 99 % vs. control
Cell viability HeLa S3 100 μM (Hela): 106 % vs. control
Cell viability HepG2 10 μM (HepG2): 75 % vs. control
Cell viability HepG2 100 μM (HepG2): 110 % vs. control

Structure (SMILES): COC(=O)[C@H](CCC(N)=O)NC(=O)CNC(=O)C(=O)[C@@H]1CCCN1C(=O)CNC(=O)c1ccnc2ccccc12 [Compound 5g, Methyl (2-oxo-2-((S)-1-((quinoline-4-carbonyl)glycyl)pyrrolidin-2-yl)acetyl)glycyl-L-glutaminate]
Cell viability CEM 10 μM (CCRF-CEM): 114 % vs. control
Cell viability CEM 100 μM (CCRF-CEM): 101 % vs. control
Cell viability HL60 10 μM (HL-60): 88 % vs. control
Cell viability HL60 100 μM (HL-60): 103 % vs. control
Cell viability HeLa S3 10 μM (Hela): 109 % vs. control
Cell viability HeLa S3 100 μM (Hela): 99 % vs. control
Cell viability HepG2 10 μM (HepG2): 102 % vs. control
Cell viability HepG2 100 μM (HepG2): 108 % vs. control

Stability in human plasma [1]: stable
substance degraded within 20 minutes ([2]; 20 minutes): 100%
Stability in murine plasma [2]: degrade immediately
Stability in murine microsomes [3]: unstable
substance degraded within 20 minutes ([3]; murine microsomes, 20 minutes): 100%
Structure (SMILES): COC(=O)[C@H](CCC(=O)OCc1ccccc1)NC(=O)CNC(=O)C(=O)[C@@H]1CCCN1C(=O)CNC(=O)c1ccnc2ccccc12 [Compound 5h, 5-Benzyl 1-methyl (2-oxo-2-((S)-1-((quinoline-4-carbonyl)glycyl)pyrrolidin-2-yl)acetyl)glycyl-L-glutamate]
Cell viability CEM 10 μM (CCRF-CEM): 114 % vs. control
Cell viability CEM 100 μM (CCRF-CEM): 103 % vs. control
Cell viability HL60 10 μM (HL-60): 109 % vs. control
Cell viability HL60 100 μM (HL-60): 106 % vs. control
Cell viability HeLa S3 10 μM (Hela): 116 % vs. control
Cell viability HeLa S3 100 μM (Hela): 93 % vs. control
Cell viability HepG2 10 μM (HepG2): 112 % vs. control
Cell viability HepG2 100 μM (HepG2): 105 % vs. control

IC50 (PREP): 0.26 nM
Structure (SMILES): COC(=O)[C@H](CCCCNC(=O)OCc1ccccc1)NC(=O)CNC(=O)C(=O)[C@@H]1CCCN1C(=O)CNC(=O)c1ccnc2ccccc12 [Compound 5i]
Cell viability CEM 10 μM (CCRF-CEM): 107 % vs. control
Cell viability CEM 100 μM (CCRF-CEM): 107 % vs. control
Cell viability HL60 10 μM (HL-60): 104 % vs. control
Cell viability HL60 100 μM (HL-60): 101 % vs. control
Cell viability HeLa S3 10 μM (Hela): 94 % vs. control
Cell viability HeLa S3 100 μM (Hela): 98 % vs. control
Cell viability HepG2 10 μM (HepG2): 89 % vs. control
Cell viability HepG2 100 μM (HepG2): 101 % vs. control
